Assay [1] concerns Staphylococcus aureus ATCC6538p. Description: MIC by agar plate dilution method on nutrient agar medium. It is filed as cell-based.
The test system of assay [2] is Xanthomonas campestris pv. oryzae KB88. Description: microbe, parasite or virus in culture. It is filed as cell-based.
For assay [3], the system named is Candida albicans KF1. The assay can be described thus: MIC by agar plate dilution method on nutrient agar medium. Format: cell-based.
Assay [4] deals with Micrococcus luteus ATCC9341. The assay is described as above. It is filed as cell-based.
For assay [5], the system named is Artemia salina. The assay can be described thus: Anthropodicidal activity, movement of nauplius larvae observed under microscope in 96 well plate. It is filed as in vivo. As for the experimental part: (§1) Methanol solution of FKI-1083 substance of the present invention was added to a 96 well plate (Corning Inc., the U.S.). […] A test medium (lecithin 0.01%, sodium hydrogen carbonate 7.5 mM, potassium chloride 7.5 mM, calcium chloride dihydrate 7.5 mM, and magnesium sulfate heptahydrate 7.5 mM) 250 μl was added thereto and shaken for 15 minutes. Approximately 10 Caenorhabditis elegans cultured on the agar medium for nematode growth [a medium in which E. coli was cultured on a medium consisting of bactoagar (DIFCO Inc., the U.S.) 1.7%, bactopeptone (DIFCO Inc., the U.S.) 0.5%, yeast extract (DIFCO Inc., the U.S.) 1.0%, sodium chloride 0.3%, cholesterol 0.0005%, calcium chloride 0.007%, magnesium sulfate 0.03%, dipotassium hydrogen phosphate 0.34%, and potassium dihydrogen phosphate 0.11%] were added thereto. Separately, a buffer solution 50 μl containing several numbers of nauplius larvae of Artemia salina hatched in the buffer (Tris 0.24%, sodium chloride 2.57%, magnesium chloride 0.47%, potassium chloride 0.07%, sodium carbonate 0.02%, magnesium sulfate 0.64% and calcium chloride 0.11%, pH 7.1) was added. Conditions of these nematode and arthropod were observed under microscope. […] Consequently, FKI-1083 substance of the present invention is useful as anthelmintic and insecticide.

For assay [6], the system named is Mycobacterium smegmatis ATCC607. Description: MIC by agar plate dilution method on nutrient agar medium. Format: cell-based. The note with it: Mycolicibacterium smegmatis.
Assay [7] deals with NADH-fumarate reductase. The assay can be described thus: NADH-fumarate reductase inhibitory activity, Ascaris suum muscle mitochondria fraction, NADH absorption at 340 nm. It is filed as biochemical. The conditions noted are these: 37° C., pH 7.0, read-out: concentration showing 50% inhibition of NADH-fumarate reductase activity. As for the experimental part:
Ascaris suum muscle was homogenized in 120 mM sodium phosphate solution (pH 7.0) and centrifuged at 3000×g for 10 minutes to collect the supernatant solution. The solution was further centrifuged at 10000×g for 20 minutes to collect the precipitate. The precipitate was suspended in 120 mM sodium phosphate solution (pH 7.0) to prepare mitochondria fraction. 50% dimethyl sulfoxide solution of FKI-1083 substance 10 μl was added to 96 well microplate. 120 mM sodium phosphate solution (pH 7.0) 80 μl containing 0.35 mM NADH and 7.2 mM disodium fumarate was added thereto and preincubated at 37° C. for 5 minutes in the microplate reader ELX808 (Bio-Tek Industries Inc., the U.S.). Mitochondria fraction of Ascaris suum muscle 10 μl (0.3 mg protein) was added thereto, incubated at 37° C. for 10 minutes and measured absorption of NADH at 340 nm in every 15 seconds. A gradient of the decrease in absorption at 340 nm was assayed as NADH-fumarate reductase activity. […] Consequently, FKI-1083 substance can be expected as a composition for treatment or prevention of helminthiasis.

Assay [8] concerns Bacillus subtilis ATCC6633. Description: MIC by agar plate dilution method on nutrient agar medium. It is filed as cell-based.
Assay [9] concerns Aspergillus niger ATCC6275. The description is as above. It is filed as cell-based.
The test system of assay [10] is Saccharomyces cerevisiae KF26. Described as above. It is filed as cell-based. The text has this:
Minimum inhibitory concentration (MIC) of FKI-1083 substance of the present invention against various microorganisms on nutrient agar medium by agar plate dilution method is shown in Table 3.

The subject of assay [11] is Escherichia coli NIHJ JC-2 (IF012734). The assay is described as above. The conditions noted are these: NIHJJC2. Format: cell-based.
Assay [12] has as its system Escherichia coli NIHJ. The description is as above. Format: cell-based.
In assay [13] the test system is Caenorhabditis elegans. The assay can be described thus: Nematocidal activity, movement observed under microscope in 96 well plate. Format: in vivo. As for the experimental part: as §1
Assay [14] relates to Mucor racemosus IF04581. Description: MIC by agar plate dilution method on nutrient agar medium. It is filed as cell-based.
In assay [15] the test system is Pseudomonas aeruginosa IF03080. The assay is described as above. It is filed as cell-based.

The text below walks through data of US7132447B2, “Substance FKI-1083 and process for producing the same” (The Kitasato Institute, priority 2001, dated 2006).

Structures are written as SMILES. ≈ marks a conversion by molar mass, not a printed value.

For `CCCCCCCC/C(C)=C/Cc1oc(OC)c(C)c(=O)c1C` [FKI-1083 substance], the MIC in assay [1] was 6.25 mg/L (≈ 19.5 µM); in assay [2], > 100 mg/L; in assay [3] it was > 100 mg/L; in [4] it was 6.25 mg/L (≈ 19.5 µM); in assay [6] it was 12.5 mg/L (≈ 39 µM); in [8] it was 6.25 mg/L (≈ 19.5 µM). For the same compound, the MIC in assay [9], in [10], in assay [11], in assay [12], in assay [14] and in [15] was > 100 mg/L each time. The “concentration at which movement was inhibited” value in assay [5] was determined as 2 µg/mL; in assay [13], 20 µg/mL. Also, the IC50 in assay [7] is 4.1 nM.
